Test results from the supplement of paper PMC10307832.

Key:
Assay in all cases: relative viability (nuclei count vs DMSO), 5 days (fraction); higher = more cells survive
NCI-H1666 = test system: NCI-H1666
In short: (§1)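 A single step with final 0.05% Triton X-100, 1% formaldehyde and 1 ug/ml Hoechst fixed the cells and stained nuclei 5 days after treatment. Lung cancer cell lines in 1536-well plates had been treated by pin tool the day after seeding with one drug alone or a fixed anchor-drug dose plus five library-drug doses (not always all listed) in √10 steps, and nuclei were counted on 4× images. Relative viability is the ratio of nuclei in treated wells to nuclei in vehicle wells, taken as the median of duplicate plates.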

NCI-H2085 = test system: NCI-H2085
In short: as §1

NCI-H661 = test system: NCI-H661
In short: as §1

ABC-1 = test system: ABC-1
In short: as §1

NCI-H1355 = test system: NCI-H1355
In short: as §1

NCI-H838 = test system: NCI-H838
In short: as §1

NCI-H647 = test system: NCI-H647
In short: as §1

HOP-62 = test system: HOP-62
In short: as §1

NCI-H23 = test system: NCI-H23
In short: as §1

NCI-H2347 = test system: NCI-H2347
In short: as §1

NCI-H2228 = test system: NCI-H2228
In short: as §1

201T = test system: 201T
In short: as §1

CAL-12T = test system: CAL-12T
In short: as §1

HCC-44 = test system: HCC-44
In short: as §1

NCI-H2170 = test system: NCI-H2170
In short: as §1

LCLC-103H = test system: LCLC-103H
In short: as §1

NCI-H1993 = test system: NCI-H1993
In short: as §1

COR-L23 = test system: COR-L23
In short: as §1

NCI-H1651 = test system: NCI-H1651
In short: as §1

NCI-H520 = test system: NCI-H520
In short: as §1

NCI-H322M = test system: NCI-H322M
In short: as §1

LC-2-ad = test system: LC-2-ad
In short: as §1

Cc1cnc(-c2cnc(NCCNc3ccc(C#N)cn3)nc2-c2ccc(Cl)cc2Cl)[nH]1 + C[C@@H](Oc1cc(-c2cnn(C3CCNCC3)c2)cnc1N)c1c(Cl)ccc(F)c1Cl [Crizotinib] (partner 1 µM)
relative viability (NCI-H1666; first compound 0.08 µM): 0.981 | relative viability (NCI-H1666; first compound 0.253 µM): 0.822 | relative viability (NCI-H1666; first compound 0.8 µM): 1.26 | relative viability (NCI-H1666; first compound 2.53 µM): 1.19 | relative viability (NCI-H2085; first compound 0.08 µM): 0.719 | relative viability (NCI-H2085; first compound 0.253 µM): 0.888 | relative viability (NCI-H2085; first compound 0.8 µM): 1.06 | relative viability (NCI-H2085; first compound 2.53 µM): 0.974 | relative viability (NCI-H661; first compound 0.08 µM): 0.924 | relative viability (NCI-H661; first compound 0.253 µM): 0.941 | relative viability (NCI-H661; first compound 0.8 µM): 0.947 | relative viability (NCI-H661; first compound 2.53 µM): 0.867 | relative viability (ABC-1; first compound 0.08 µM): 1.03 | relative viability (ABC-1; first compound 0.253 µM): 0.831 | relative viability (ABC-1; first compound 0.8 µM): 1.23 | relative viability (ABC-1; first compound 2.53 µM): 1.05 | relative viability (NCI-H1355; first compound 0.08 µM): 1.1 | relative viability (NCI-H1355; first compound 0.253 µM): 0.9 | relative viability (NCI-H1355; first compound 0.8 µM): 1 | relative viability (NCI-H1355; first compound 2.53 µM): 0.992 | relative viability (NCI-H838; first compound 0.08 µM): 0.855 | relative viability (NCI-H838; first compound 0.253 µM): 0.807 | relative viability (NCI-H838; first compound 0.8 µM): 0.951 | relative viability (NCI-H838; first compound 2.53 µM): 1.01 | relative viability (NCI-H647; first compound 0.08 µM): 1.06 | relative viability (NCI-H647; first compound 0.253 µM): 0.783 | relative viability (NCI-H647; first compound 0.8 µM): 1.07 | relative viability (NCI-H647; first compound 2.53 µM): 0.927 | relative viability (HOP-62; first compound 0.08 µM): 0.892 | relative viability (HOP-62; first compound 0.253 µM): 0.816 | relative viability (HOP-62; first compound 0.8 µM): 0.997 | relative viability (HOP-62; first compound 2.53 µM): 0.853 | relative viability (NCI-H23; first compound 0.08 µM): 0.676 | relative viability (NCI-H23; first compound 0.253 µM): 0.496 | relative viability (NCI-H23; first compound 0.8 µM): 0.638 | relative viability (NCI-H23; first compound 2.53 µM): 0.621 | relative viability (NCI-H2347; first compound 0.08 µM): 0.734 | relative viability (NCI-H2347; first compound 0.253 µM): 0.632 | relative viability (NCI-H2347; first compound 0.8 µM): 0.753 | relative viability (NCI-H2347; first compound 2.53 µM): 0.741 | relative viability (NCI-H2228; first compound 0.08 µM): 0.47 | relative viability (NCI-H2228; first compound 0.253 µM): 0.412 | relative viability (NCI-H2228; first compound 0.8 µM): 0.612 | relative viability (NCI-H2228; first compound 2.53 µM): 0.619 | relative viability (201T; first compound 0.08 µM): 1.07 | relative viability (201T; first compound 0.253 µM): 0.982 | relative viability (201T; first compound 0.8 µM): 1.02 | relative viability (201T; first compound 2.53 µM): 0.998 | relative viability (CAL-12T; first compound 0.08 µM): 0.722 | relative viability (CAL-12T; first compound 0.253 µM): 0.507 | relative viability (CAL-12T; first compound 0.8 µM): 0.529 | relative viability (CAL-12T; first compound 2.53 µM): 0.376 | relative viability (HCC-44; first compound 0.08 µM): 0.781 | relative viability (HCC-44; first compound 0.253 µM): 0.886 | relative viability (HCC-44; first compound 0.8 µM): 0.774 | relative viability (HCC-44; first compound 2.53 µM): 0.767 | relative viability (NCI-H2170; first compound 0.08 µM): 1.25 | relative viability (NCI-H2170; first compound 0.253 µM): 1.07 | relative viability (NCI-H2170; first compound 0.8 µM): 1.26 | relative viability (NCI-H2170; first compound 2.53 µM): 1.06 | relative viability (LCLC-103H; first compound 0.08 µM): 1.04 | relative viability (LCLC-103H; first compound 0.253 µM): 1.12 | relative viability (LCLC-103H; first compound 0.8 µM): 0.984 | relative viability (LCLC-103H; first compound 2.53 µM): 0.954 | relative viability (NCI-H1993; first compound 0.08 µM): 0.804 | relative viability (NCI-H1993; first compound 0.253 µM): 0.861 | relative viability (NCI-H1993; first compound 0.8 µM): 0.884 | relative viability (NCI-H1993; first compound 2.53 µM): 0.954 | relative viability (COR-L23; first compound 0.08 µM): 0.619 | relative viability (COR-L23; first compound 0.253 µM): 0.605 | relative viability (COR-L23; first compound 0.8 µM): 0.833 | relative viability (COR-L23; first compound 2.53 µM): 0.722 | relative viability (NCI-H1651; first compound 0.08 µM): 0.915 | relative viability (NCI-H1651; first compound 0.253 µM): 0.797 | relative viability (NCI-H1651; first compound 0.8 µM): 0.852 | relative viability (NCI-H1651; first compound 2.53 µM): 0.825 | relative viability (NCI-H520; first compound 0.08 µM): 0.901 | relative viability (NCI-H520; first compound 0.253 µM): 0.75 | relative viability (NCI-H520; first compound 0.8 µM): 0.765 | relative viability (NCI-H520; first compound 2.53 µM): 0.755 | relative viability (NCI-H322M; first compound 0.08 µM): 0.925 | relative viability (NCI-H322M; first compound 0.253 µM): 0.81 | relative viability (NCI-H322M; first compound 0.8 µM): 0.821 | relative viability (NCI-H322M; first compound 2.53 µM): 0.858 | relative viability (LC-2-ad; first compound 0.08 µM): 0.489 | relative viability (LC-2-ad; first compound 2.53 µM): 0.426
